Values after ≈ are worked out from the molar mass of the structure shown.
Tested on: not listed separately
Assay: Agonist activity at MRGPRX4 83L (unknown origin) expressed in HEK293 cells co-expressing Galpha15 assessed as change in intracellular calcium level by FLIPR assay
Type: cell-based
Conditions: Homo sapiens

SMILES	EC50 [µM]
C[C@H](CCC(=O)O)[C@H]1CC[C@H]2[C@@H]3CC[C@@H]4C[C@H](O)CC[C@]4(C)[C@H]3C[C@H](O)[C@]12C [DEOXYCHOLIC ACID]	2.6
C[C@H](CCC(=O)O)[C@H]1CC[C@H]2[C@@H]3[C@@H](O)C[C@@H]4C[C@H](O)CC[C@]4(C)[C@H]3CC[C@]12C [URSODIOL]	4.93

Tested on: not listed separately
Assay: Agonist activity at MRGPRX4 83L (unknown origin) expressed in HEK293 cells co-expressing Gq assessed as change in intracellular calcium level by FLIPR assay
Type: cell-based
Conditions: Homo sapiens

SMILES	EC50 [µM]
CC(C)[C@H]1CC[C@H](C(=O)N[C@H](Cc2ccccc2)C(=O)O)CC1 [NATEGLINIDE]	4.72
C[C@]12C[C@@H]3C[C@](C)(C1)C[C@@](C(=O)N[C@H](Cc1ccccc1)C(=O)O)(C3)C2	0.149
C[C@H](CCC(=O)NCCS(=O)(=O)O)[C@H]1CC[C@H]2[C@@H]3CC[C@@H]4C[C@H](O)CC[C@]4(C)[C@H]3C[C@H](O)[C@]12C [TAURODEOXYCHOLIC ACID]	14.1
O=C(O)[C@@H](Cc1ccccc1)NC(=O)C12CC3CC(CC(C3)C1)C2	0.581

Tested on: not listed separately
Assay: Agonist activity at MRGPRX4 83S (unknown origin) expressed in HEK293 cells co-expressing Gq assessed as change in intracellular calcium level by FLIPR assay
Type: cell-based
Conditions: Homo sapiens

SMILES	EC50 [µM]
CC(C)[C@H]1CC[C@H](C(=O)N[C@H](Cc2ccccc2)C(=O)O)CC1 [NATEGLINIDE]	> 10
C[C@]12C[C@@H]3C[C@](C)(C1)C[C@@](C(=O)N[C@H](Cc1ccccc1)C(=O)O)(C3)C2	> 10

Tested on: not listed separately
Assay: Agonist activity at MRGPRX4 83S in human LN229 glioblastoma cells assessed as change in intracellular calcium level by calcium mobilization assay
Type: cell-based
Conditions: not given

SMILES	EC50 [µM]
C#CCn1c(=O)c2[nH]c(CCc3cccc(OC)c3)nc2n(CCCCP(=O)(OCC)OCC)c1=O	> 10
CC(C)[C@H]1CC[C@H](C(=O)N[C@H](Cc2ccccc2)C(=O)O)CC1 [NATEGLINIDE]	> 10
C#CCn1c(=O)c2[nH]c(CCc3cccc(OC)c3)nc2n(CCCCS(=O)(=O)O)c1=O	> 10
C#CCn1c(=O)c2[nH]c(C(C)Cc3ccccc3)nc2n(CCCCP(=O)(O)O)c1=O (configuration not stated)	0.0345
C[C@]12C[C@@H]3C[C@](C)(C1)C[C@@](C(=O)N[C@H](Cc1ccccc1)C(=O)O)(C3)C2	13.3
C#CCn1c(=O)c2[nH]c(CCc3cccc(OC)c3)nc2n(CCCCP(=O)(O)O)c1=O	0.0112
C#CCn1c(=O)c2c(nc(C#Cc3cccc(OC)c3)n2C)n(CCCOP(=O)(O)O)c1=O	> 10
C#CCn1c(=O)c2[nH]c(COc3ccccc3)nc2n(CCCCP(=O)(O)O)c1=O	> 10
C#CCn1c(=O)c2[nH]c([C@@H]3C[C@H]3c3ccccc3)nc2n(CCCCP(=O)(O)O)c1=O	> 10
C[C@H](CCC(=O)NCCS(=O)(=O)O)[C@H]1CC[C@H]2[C@@H]3CC[C@@H]4C[C@H](O)CC[C@]4(C)[C@H]3C[C@H](O)[C@]12C [TAURODEOXYCHOLIC ACID]	> 10
O=C(O)[C@@H](Cc1ccccc1)NC(=O)C12CC3CC(CC(C3)C1)C2	> 10
C[C@H](CCC(=O)O)[C@H]1CC[C@H]2[C@@H]3CC[C@@H]4C[C@H](O)CC[C@]4(C)[C@H]3C[C@H](O)[C@]12C [DEOXYCHOLIC ACID]	169
C[C@H](CCC(=O)O)[C@H]1CC[C@H]2[C@@H]3[C@@H](O)C[C@@H]4C[C@H](O)CC[C@]4(C)[C@H]3CC[C@]12C [URSODIOL]	47.5

Tested on: not listed separately
Assay: Agonist activity at MRGPRX4 83S (unknown origin) expressed in CHO-K1 cells assessed as induction of beta-arrestin recruitment measured after 90 mins by luminescence assay
Type: cell-based
Conditions: Homo sapiens, CHO-K1, 1.5 h

SMILES	EC50 [µM]
C#CCn1c(=O)c2[nH]c(CCc3cccc(OC)c3)nc2n(CCCCP(=O)(OCC)OCC)c1=O	> 10
CC(C)[C@H]1CC[C@H](C(=O)N[C@H](Cc2ccccc2)C(=O)O)CC1 [NATEGLINIDE]	28.4
C#CCn1c(=O)c2[nH]c(CCc3cccc(OC)c3)nc2n(CCCCS(=O)(=O)O)c1=O	> 10
C#CCn1c(=O)c2[nH]c(C(C)Cc3ccccc3)nc2n(CCCCP(=O)(O)O)c1=O (configuration not stated)	0.0277
C[C@]12C[C@@H]3C[C@](C)(C1)C[C@@](C(=O)N[C@H](Cc1ccccc1)C(=O)O)(C3)C2	3.98
C#CCn1c(=O)c2[nH]c(CCc3cccc(OC)c3)nc2n(CCCCP(=O)(O)O)c1=O	0.032
C#CCn1c(=O)c2c(nc(C#Cc3cccc(OC)c3)n2C)n(CCCOP(=O)(O)O)c1=O	> 10
C#CCn1c(=O)c2[nH]c(COc3ccccc3)nc2n(CCCCP(=O)(O)O)c1=O	1.85
C#CCn1c(=O)c2[nH]c([C@@H]3C[C@H]3c3ccccc3)nc2n(CCCCP(=O)(O)O)c1=O	> 10
C[C@H](CCC(=O)NCCS(=O)(=O)O)[C@H]1CC[C@H]2[C@@H]3CC[C@@H]4C[C@H](O)CC[C@]4(C)[C@H]3C[C@H](O)[C@]12C [TAURODEOXYCHOLIC ACID]	54.5
O=C(O)[C@@H](Cc1ccccc1)NC(=O)C12CC3CC(CC(C3)C1)C2	64.1
C[C@H](CCC(=O)O)[C@H]1CC[C@H]2[C@@H]3CC[C@@H]4C[C@H](O)CC[C@]4(C)[C@H]3C[C@H](O)[C@]12C [DEOXYCHOLIC ACID]	1.68
C[C@H](CCC(=O)O)[C@H]1CC[C@H]2[C@@H]3[C@@H](O)C[C@@H]4C[C@H](O)CC[C@]4(C)[C@H]3CC[C@]12C [URSODIOL]	3.27

Tested on: not listed separately
Assay: Agonist activity at MRGPRX4 83L (unknown origin) expressed in human 1321N1 glioblastoma cells assessed as change in intracellular calcium level by calcium mobilization assay
Type: cell-based
Conditions: not given

SMILES	EC50 [µM]
C#CCn1c(=O)c2[nH]c(CCc3cccc(OC)c3)nc2n(CCCCP(=O)(OCC)OCC)c1=O	> 10
CC(C)[C@H]1CC[C@H](C(=O)N[C@H](Cc2ccccc2)C(=O)O)CC1 [NATEGLINIDE]	0.198
C#CCn1c(=O)c2[nH]c(CCc3cccc(OC)c3)nc2n(CCCCS(=O)(=O)O)c1=O	> 10
C#CCn1c(=O)c2[nH]c(C(C)Cc3ccccc3)nc2n(CCCCP(=O)(O)O)c1=O (configuration not stated)	6.17
C[C@]12C[C@@H]3C[C@](C)(C1)C[C@@](C(=O)N[C@H](Cc1ccccc1)C(=O)O)(C3)C2	0.00656
C#CCn1c(=O)c2[nH]c(CCc3cccc(OC)c3)nc2n(CCCCP(=O)(O)O)c1=O	0.435
C#CCn1c(=O)c2c(nc(C#Cc3cccc(OC)c3)n2C)n(CCCOP(=O)(O)O)c1=O	> 10
C#CCn1c(=O)c2[nH]c(COc3ccccc3)nc2n(CCCCP(=O)(O)O)c1=O	> 10
C#CCn1c(=O)c2[nH]c([C@@H]3C[C@H]3c3ccccc3)nc2n(CCCCP(=O)(O)O)c1=O	> 10
C[C@H](CCC(=O)NCCS(=O)(=O)O)[C@H]1CC[C@H]2[C@@H]3CC[C@@H]4C[C@H](O)CC[C@]4(C)[C@H]3C[C@H](O)[C@]12C [TAURODEOXYCHOLIC ACID]	> 10
O=C(O)[C@@H](Cc1ccccc1)NC(=O)C12CC3CC(CC(C3)C1)C2	0.126
C[C@H](CCC(=O)O)[C@H]1CC[C@H]2[C@@H]3CC[C@@H]4C[C@H](O)CC[C@]4(C)[C@H]3C[C@H](O)[C@]12C [DEOXYCHOLIC ACID]	11.2
C[C@H](CCC(=O)O)[C@H]1CC[C@H]2[C@@H]3[C@@H](O)C[C@@H]4C[C@H](O)CC[C@]4(C)[C@H]3CC[C@]12C [URSODIOL]	41.1

Tested on: not listed separately
Assay: Agonist activity at MRGPRX4 83L (unknown origin) expressed in CHO cells assessed as induction of beta-arrestin recruitment measured after 90 mins by luminescence assay
Type: cell-based
Conditions: Homo sapiens, 1.5 h

SMILES	EC50 [µM]
C#CCn1c(=O)c2[nH]c(CCc3cccc(OC)c3)nc2n(CCCCP(=O)(OCC)OCC)c1=O	> 10
CC(C)[C@H]1CC[C@H](C(=O)N[C@H](Cc2ccccc2)C(=O)O)CC1 [NATEGLINIDE]	4.09
C#CCn1c(=O)c2[nH]c(CCc3cccc(OC)c3)nc2n(CCCCS(=O)(=O)O)c1=O	> 10
C#CCn1c(=O)c2[nH]c(C(C)Cc3ccccc3)nc2n(CCCCP(=O)(O)O)c1=O (configuration not stated)	3.94
C[C@]12C[C@@H]3C[C@](C)(C1)C[C@@](C(=O)N[C@H](Cc1ccccc1)C(=O)O)(C3)C2	0.548
C#CCn1c(=O)c2[nH]c(CCc3cccc(OC)c3)nc2n(CCCCP(=O)(O)O)c1=O	5.71
C#CCn1c(=O)c2c(nc(C#Cc3cccc(OC)c3)n2C)n(CCCOP(=O)(O)O)c1=O	> 10
C#CCn1c(=O)c2[nH]c(COc3ccccc3)nc2n(CCCCP(=O)(O)O)c1=O	> 10
C#CCn1c(=O)c2[nH]c([C@@H]3C[C@H]3c3ccccc3)nc2n(CCCCP(=O)(O)O)c1=O	> 10
C[C@H](CCC(=O)NCCS(=O)(=O)O)[C@H]1CC[C@H]2[C@@H]3CC[C@@H]4C[C@H](O)CC[C@]4(C)[C@H]3C[C@H](O)[C@]12C [TAURODEOXYCHOLIC ACID]	55.7
O=C(O)[C@@H](Cc1ccccc1)NC(=O)C12CC3CC(CC(C3)C1)C2	6.7
C[C@H](CCC(=O)O)[C@H]1CC[C@H]2[C@@H]3CC[C@@H]4C[C@H](O)CC[C@]4(C)[C@H]3C[C@H](O)[C@]12C [DEOXYCHOLIC ACID]	24.6
C[C@H](CCC(=O)O)[C@H]1CC[C@H]2[C@@H]3[C@@H](O)C[C@@H]4C[C@H](O)CC[C@]4(C)[C@H]3CC[C@]12C [URSODIOL]	33.8

Tested on: LN-229
Assay: Cytotoxicity against human LN-229 glioblastoma cells assessed as cell viability upto 30 uM measured after 3 days by MTT assay
Type: toxicity, cell-based
Conditions: ln-229, 72 h, time 3 day

SMILES	Activity
C#CCn1c(=O)c2[nH]c(CCc3cccc(OC)c3)nc2n(CCCCP(=O)(O)O)c1=O	Non-Toxic

Tested on: not listed separately
Assay: Kinetic solubility of compound in PBS at pH 7.4 incubated for 3 days
Type: physicochemical
Conditions: time 3 day, read-out: Kinetic_solubility

SMILES	solubility kinetic at 72 h [µM]
C#CCn1c(=O)c2[nH]c(CCc3cccc(OC)c3)nc2n(CCCCP(=O)(O)O)c1=O	218 (≈ 100 µg/mL)

Tested on: not listed separately
Assay: Metabolic stability of the compound in human liver microsomes assessed as half life at 1 uM in presence of NADPH by LC-MS analysis
Type: ADME, Microsome
Conditions: not given

SMILES	half-life at 1 µM [h]
C#CCn1c(=O)c2[nH]c(CCc3cccc(OC)c3)nc2n(CCCCP(=O)(O)O)c1=O	> 4.5

Tested on: not listed separately
Assay: Agonist activity at MRGPRX4 83S in human LN229 glioblastoma cells assessed as change in intracellular calcium level at 10 uM by calcium mobilization assay relative to control
Conditions: not given

SMILES	Activity [%]
CC(C)[C@H]1CC[C@H](C(=O)N[C@H](Cc2ccccc2)C(=O)O)CC1 [NATEGLINIDE]	0
C[C@H](CCC(=O)NCCS(=O)(=O)O)[C@H]1CC[C@H]2[C@@H]3CC[C@@H]4C[C@H](O)CC[C@]4(C)[C@H]3C[C@H](O)[C@]12C [TAURODEOXYCHOLIC ACID]	6
O=C(O)[C@@H](Cc1ccccc1)NC(=O)C12CC3CC(CC(C3)C1)C2	1

Tested on: not listed separately
Assay: Agonist activity at MRGPRX4 83L (unknown origin) expressed in human 1321N1 glioblastoma cells assessed as change in intracellular calcium level 10 uM by calcium mobilization assay relative to control
Conditions: not given

SMILES	Activity [%]
C[C@H](CCC(=O)NCCS(=O)(=O)O)[C@H]1CC[C@H]2[C@@H]3CC[C@@H]4C[C@H](O)CC[C@]4(C)[C@H]3C[C@H](O)[C@]12C [TAURODEOXYCHOLIC ACID]	1

Source: ChEMBL document CHEMBL5375944, “Discovery of Potent Agonists for the Predominant Variant of the Orphan MAS-Related G Protein-Coupled Receptor X4 (MRGPRX4)” (J Med Chem, 2023)
